Source: US4104306A, “12A-Deoxy chelocardin” (Abbott Laboratories, priority 1976, dated 1978)
Structures can show the parent of a compound that is named as a salt.

Tests used:
Format in all cases: cell-based
[1] = test system: Diplococcus pneumoniae 6301; assay: tube dilution test; conditions: Streptococcus pneumoniae, broth with 20% horse serum, read-out: minimum inhibitory concentration (MIC)
Description: The antibacterial activity of the above material was tested in the usual fashion, using a two-fold, brain-heart infusion agar (BHI 10 ml/plate) dilution test with 12 different organisms. The following minimum inhibitory concentrations (MIC) were determined: | *tube dilution test; broth container with 20% horse serum

Enterococcus 89 = assay: two-fold brain-heart infusion agar dilution test; conditions: BHI agar dilution, 10 ml/plate, read-out: minimum inhibitory concentration (MIC)
Description: (§1) The antibacterial activity of the above material was tested in the usual fashion, using a two-fold, brain-heart infusion agar (BHI 10 ml/plate) dilution test with 12 different organisms. The following minimum inhibitory concentrations (MIC) were determined: […]

[2] = test system: Salmonella typhimurium Ed. #9; assay: two-fold brain-heart infusion agar dilution test; conditions: Salmonella enterica, BHI agar dilution, 10 ml/plate, read-out: minimum inhibitory concentration (MIC)
Description: as §1

[3] = test system: Klebsiella pneumoniae 8045; assay: two-fold brain-heart infusion agar dilution test; conditions: BHI agar dilution, 10 ml/plate, read-out: minimum inhibitory concentration (MIC)
Description: as §1

Staph. aureus 45 = assay: two-fold brain-heart infusion agar dilution test; conditions: Staphylococcus aureus, BHI agar dilution, 10 ml/plate, read-out: minimum inhibitory concentration (MIC)
Description: as §1

[4] = test system: Pasteurella multocida 10544; assay: two-fold brain-heart infusion agar dilution test; conditions: BHI agar dilution, 10 ml/plate, read-out: minimum inhibitory concentration (MIC)
Description: as §1

Escherichia coli Juhl = assay: two-fold brain-heart infusion agar dilution test; conditions: BHI agar dilution, 10 ml/plate, read-out: minimum inhibitory concentration (MIC)
Description: as §1

Proteus mirabilis Fin #9 = assay: two-fold brain-heart infusion agar dilution test; conditions: BHI agar dilution, 10 ml/plate, read-out: minimum inhibitory concentration (MIC)
Description: as §1

[5] = test system: Streptococcus pyrogenes C203; assay: two-fold brain-heart infusion agar dilution test; conditions: BHI agar dilution, 10 ml/plate, read-out: minimum inhibitory concentration (MIC)
Description: as §1

[6] = test system: Pseudomonas aeruginosa BMH #10; assay: two-fold brain-heart infusion agar dilution test; conditions: BHI agar dilution, 10 ml/plate, read-out: minimum inhibitory concentration (MIC)
Description: as §1

[7] = test system: Proteus vulgaris Abbott JJ; assay: two-fold brain-heart infusion agar dilution test; conditions: BHI agar dilution, 10 ml/plate, read-out: minimum inhibitory concentration (MIC)
Description: as §1

Staph. aureus Smith = assay: two-fold brain-heart infusion agar dilution test; conditions: Staphylococcus aureus, BHI agar dilution, 10 ml/plate, read-out: minimum inhibitory concentration (MIC)
Description: as §1

Compound: CC(=O)C1=C(O)C(N)C2Cc3c(c(O)c4c(O)c(C)ccc4c3C)C(O)=C2C1=O (stereo not drawn) [12a-deoxychelocardin hydrobromide]
- MIC [1]: 25 µg/mL
- MIC (Enterococcus 89): 6.2 µg/mL
- MIC [2]: 6.2 µg/mL
- MIC [3]: 6.2 µg/mL
- MIC (Staph. aureus 45): 3.1 µg/mL
- MIC [4]: 0.39 µg/mL
- MIC (Escherichia coli Juhl): 25 µg/mL
- MIC (Proteus mirabilis Fin #9): 6.2 µg/mL
- MIC [5]: 6.2 µg/mL
- MIC [6]: 100 µg/mL
- MIC [7]: 3.1 µg/mL
- MIC (Staph. aureus Smith): 3.1 µg/mL
